Assay results as given in patent US9260417B2, “Therapeutic methods and compositions involving allosteric kinase inhibition” (AMITECH THERAPEUTIC SOLUTIONS, INC., priority 2010, dated 2016).

Columns and labels:
EGFR L861Q = EGFR L861Q (Homo sapiens (Human), UniProt P00533, L861Q); assay: In vitro kinase panel (SelectScreen); format: biochemical
Description: (§2) In vitro kinase screen and competitive binding assay. […] 11-point Kd curves were determined for hits identified during the initial screen.

VSMCs = assay: XTT viability assay in VSMCs; format: cell-based, human; settings: 72 h, full growth medium containing 10% FBS; read-out: EC50, VSMC viability
Description: FIG. 1A-1F illustrate molecular modeling and assay screening to compounds for dual targeting of PDGFRβ and RAF. (FIG. 1A) Molecular modeling of the amino-triazole based small molecules in PDGFRβ and RAF, respectively. […] A homology model of PDGFRβ was created with a structurally-related family member (VEGFR2, PDB 1y6b). […] To autophosphorylation, immunoblots were carried out with a phospho-tyrosine antibody. Membranes were stripped and reprobed for total PDGFRβ levels. […] (FIG. 1D) Structure activity relationships of the amino-triazole based small molecules comparing both PDGFRβ and B-RAF. […] Curves represent the average of 3 separate experiments, error bars represent ±SEM.
For XTT assays, cells were grown in 96-well plates overnight and all assays were conducted in growth medium will full serum and additives. […] Dose-response curves were plotted using GraphPad Prism software and EC50s were calculated using this program.

PDGFRA = PDGFRA (Homo sapiens (Human), UniProt P16234); assay: KINOMEscan competitive binding assay
Description: (§3) In vitro kinase screen and competitive binding assay. […] For the competitive binding assay, test compounds were screened at 10 μM against 70 diverse kinase targets for competitive binding using the KINOMEscan™ technology (Ambit Biosciences) (Karaman, et al. (2008) Nature biotechnology 26:127-132). 11-point Kd curves were determined for hits identified during the initial screen.

FLT3 = FLT3 (Homo sapiens (Human), UniProt P36888); assay: KINOMEscan competitive binding assay
Description: as §3

EGFR L858R = EGFR L858R (Homo sapiens (Human), UniProt P00533, L858R); assay: In vitro kinase panel (SelectScreen); format: biochemical
Description: as §2

ABL1 = ABL1 (Homo sapiens (Human), UniProt P00519); assay: In vitro kinase panel (SelectScreen); format: biochemical
Description: as §2

[1] = biological target: B-RAF/C-RAF heterodimerization (Homo sapiens (Human), UniProt P15056); assay: B-RAF/C-RAF heterodimerization in HUVECs (immunoprecipitation/Western); format: cell-based; settings: ECs stimulated with bFGF or VEGF
[2] = tested on: HUVECs co-cultured with hTERT-human hepatic stellate cells; assay: Stellate cell/endothelial cell co-culture tube formation assay; format: cell-based; settings: […] 6, […] 3, 1.0 μM imatinib, 0.5 μM GW 5074
Description: One representative panel from 3 independent experiments is shown. […] Scale bar=200 μm.
The stellate cells were washed in PBS and mixed with early passage HUVECs (p<5) at a ratio of 1:4 and mixed into a 3.75 mg/ml Type 1 Rat tail collagen matrix (BD Biosciences) in M-199 media. 30 μl of this mixture was seeded onto each well of a half-area 96 well plate (Corning). The collagen was allowed to polymerize for 30 min at 37° C. and […] of complete EBM-2 media was added to each well. Various inhibitors were serially diluted in DMSO and subsequently added to duplicate wells 6 h post cell seeding. […] The endothelial tubes and the stellate cells were imaged at 48 h with a 10× objective on a confocal microscope. Images were collected across five fields per well.
Stellate cell/endothelial cell tube formation assay and mouse matrigel model. This assay was performed as described in the SI Methods. The stellate cells were a gift from Dr. David Brenner and previously described (Schnabl, et al. (2002) Laboratory investigation; a journal of technical methods and pathology 82:323-333). […] The mouse matrigel model was performed as previously described (Eliceiri, et al. (1999) Molecular cell 4:915-924 5) and further details of immunohistochemistry and animal dosing can be found herein.
To validate the findings of Example 10, a co-culture angiogenesis assay was utilized to evaluate similar combinations of PDGFR and RAF inhibitors. In the assay, HUVECs are mixed with hepatic stellate cells (a pericyte found in the perisinusoidal space of the liver) in a 3D-collagen gel. The co-culture produced endothelial tubes with pericyte contacts (from the stellate cells) that can be imaged and quantified as shown in FIGS. 4B and C.

EGFR = EGFR (Homo sapiens (Human), UniProt P00533); assay: In vitro kinase panel (SelectScreen); format: biochemical
Description: as §2

KDR (VEGFR2) = KDR (VEGFR2) (Homo sapiens (Human), UniProt P35968); assay: In vitro kinase panel (SelectScreen); format: biochemical
Description: as §2

PDGFRB = PDGFRB (Homo sapiens (Human), UniProt P09619); assay: KINOMEscan competitive binding assay
Description: as §3

KIT = KIT (Homo sapiens (Human), UniProt P10721); assay: KINOMEscan competitive binding assay
Description: as §3

HT29 = assay: Tumor cell viability; format: cell-based; settings: Colon HT29, B-RAF V600E
Description: (§1) For XTT assays, cells were grown in 96-well plates overnight and all assays were conducted in growth medium will full serum and additives. Compounds were serially diluted in DMSO and then further diluted into the medium to give the appropriate concentration while minimizing precipitation associated with serial diluting in medium alone Inhibitors were added for 72 h and cell viability was quantified at 450 nm after the addition of 1 mg/ml XTT solution (Sigma-Aldrich) in phenol-red free DMEM medium containing […] (Sigma-Aldrich). Dose-response curves were plotted using GraphPad Prism software and EC50s were calculated using this program.

CHL-1 = assay: Tumor cell viability; format: cell-based; settings: Melanoma CHL-1
Description: as §1

SK-MEL-2 = assay: Tumor cell viability; format: cell-based; settings: Melanoma SK-MEL-2, N-Ras
Description: as §1

SK-MEL-28 = assay: Tumor cell viability; format: cell-based; settings: Melanoma SK-MEL-28, B-RAF V600E
Description: as §1

R40P = assay: Tumor cell viability; format: cell-based; settings: Pancreatic (mouse spontaneous model) R40P, K-Ras
Description: as §1

MCF7 = assay: Tumor cell viability; format: cell-based; settings: Breast MCF7, PI3K
Description: as §1

CRAF S338 = CRAF S338 (Mus musculus (Mouse), UniProt Q99N57); assay: CRAF S338 phosphorylation in R40P cells (Western); format: cell-based; settings: 12 h, sorafenib 5 μM, compound 6 5, 2.5, 1.25 μM
Description: R40P cells are derived from a spontaneous pancreatic adenocarcinoma mouse model which expresses K-ras^G12D while p16/Ink4a/ARF is lost. […] At this time the cells were lysed and protein levels were quantified by BCA analysis. The lysates were then loaded on an SDS-PAGE gel and transferred to nitrocellulose for Western blotting. Immunoblotting was performed with the following antibodies: pMEK1/2 S217/S221 (Cell Signaling), pCRAF S338 (Cell Signaling), and total CRAF (BD Biosciences). Chemilluminescence was used for detection on film.

HCT116 = assay: Tumor cell viability; format: cell-based, human; settings: Colon HCT116, K-Ras
Description: as §1

Sequence of KDR (VEGFR2) (P35968 20-1356): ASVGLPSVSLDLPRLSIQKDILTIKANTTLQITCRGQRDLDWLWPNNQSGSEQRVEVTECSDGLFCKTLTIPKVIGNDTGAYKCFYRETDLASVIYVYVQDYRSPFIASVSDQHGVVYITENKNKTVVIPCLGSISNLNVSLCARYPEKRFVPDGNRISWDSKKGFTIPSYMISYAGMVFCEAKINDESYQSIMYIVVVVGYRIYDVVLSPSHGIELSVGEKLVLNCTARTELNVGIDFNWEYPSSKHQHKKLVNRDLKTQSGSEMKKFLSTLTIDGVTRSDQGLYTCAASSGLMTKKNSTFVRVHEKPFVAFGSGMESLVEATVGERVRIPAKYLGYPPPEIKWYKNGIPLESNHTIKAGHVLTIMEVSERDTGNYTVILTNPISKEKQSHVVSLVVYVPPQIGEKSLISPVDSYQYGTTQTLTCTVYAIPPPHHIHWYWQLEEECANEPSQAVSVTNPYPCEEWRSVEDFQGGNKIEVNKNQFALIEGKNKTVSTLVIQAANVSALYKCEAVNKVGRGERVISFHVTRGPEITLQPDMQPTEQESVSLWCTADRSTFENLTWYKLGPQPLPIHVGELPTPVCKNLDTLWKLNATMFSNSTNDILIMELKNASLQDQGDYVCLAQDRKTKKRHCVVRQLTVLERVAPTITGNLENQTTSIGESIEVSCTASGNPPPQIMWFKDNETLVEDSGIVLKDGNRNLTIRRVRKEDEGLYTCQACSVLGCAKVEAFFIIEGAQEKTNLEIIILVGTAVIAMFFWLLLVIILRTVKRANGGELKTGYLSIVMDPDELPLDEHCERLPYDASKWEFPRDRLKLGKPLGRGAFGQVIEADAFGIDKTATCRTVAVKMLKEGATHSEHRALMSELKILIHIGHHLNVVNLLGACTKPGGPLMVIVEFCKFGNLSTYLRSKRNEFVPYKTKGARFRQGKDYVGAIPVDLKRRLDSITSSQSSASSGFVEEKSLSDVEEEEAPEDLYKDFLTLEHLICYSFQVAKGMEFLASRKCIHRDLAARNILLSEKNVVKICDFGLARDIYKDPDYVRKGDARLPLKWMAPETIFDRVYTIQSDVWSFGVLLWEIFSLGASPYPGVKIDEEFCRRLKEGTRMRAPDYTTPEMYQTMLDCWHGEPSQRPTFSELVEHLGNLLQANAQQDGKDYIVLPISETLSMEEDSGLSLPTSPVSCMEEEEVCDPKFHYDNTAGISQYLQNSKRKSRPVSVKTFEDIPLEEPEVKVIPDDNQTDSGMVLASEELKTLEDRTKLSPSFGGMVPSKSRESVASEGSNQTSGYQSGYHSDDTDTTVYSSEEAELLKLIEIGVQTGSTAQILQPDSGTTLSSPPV
Sequence of KIT (P10721 26-976): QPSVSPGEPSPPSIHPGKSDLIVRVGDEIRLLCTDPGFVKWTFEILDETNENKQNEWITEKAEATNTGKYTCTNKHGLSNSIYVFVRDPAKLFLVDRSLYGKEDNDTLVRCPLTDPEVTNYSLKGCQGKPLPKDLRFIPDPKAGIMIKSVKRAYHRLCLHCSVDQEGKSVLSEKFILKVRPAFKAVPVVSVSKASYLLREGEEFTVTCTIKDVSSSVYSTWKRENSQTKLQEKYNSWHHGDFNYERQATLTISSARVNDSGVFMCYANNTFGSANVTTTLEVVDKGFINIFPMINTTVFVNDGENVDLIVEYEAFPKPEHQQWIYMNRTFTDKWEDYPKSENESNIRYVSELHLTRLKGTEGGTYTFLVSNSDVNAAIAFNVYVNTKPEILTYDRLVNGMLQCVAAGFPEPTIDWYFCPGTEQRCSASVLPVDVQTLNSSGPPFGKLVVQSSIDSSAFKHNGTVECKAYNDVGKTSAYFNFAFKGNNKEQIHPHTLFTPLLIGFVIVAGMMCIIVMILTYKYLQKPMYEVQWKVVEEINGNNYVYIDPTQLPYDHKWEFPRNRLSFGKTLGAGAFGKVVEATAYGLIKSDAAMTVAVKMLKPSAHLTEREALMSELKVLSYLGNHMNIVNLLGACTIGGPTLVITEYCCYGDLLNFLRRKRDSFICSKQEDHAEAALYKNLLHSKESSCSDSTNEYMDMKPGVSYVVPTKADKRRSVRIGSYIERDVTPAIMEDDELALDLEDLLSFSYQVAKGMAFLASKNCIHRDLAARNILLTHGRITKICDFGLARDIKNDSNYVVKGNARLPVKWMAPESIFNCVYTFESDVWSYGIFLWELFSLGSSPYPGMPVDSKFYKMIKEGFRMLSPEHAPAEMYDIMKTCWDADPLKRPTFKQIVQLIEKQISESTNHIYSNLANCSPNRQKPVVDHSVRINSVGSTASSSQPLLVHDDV
Sequence of EGFR L858R (P00533 25-1210 L858R): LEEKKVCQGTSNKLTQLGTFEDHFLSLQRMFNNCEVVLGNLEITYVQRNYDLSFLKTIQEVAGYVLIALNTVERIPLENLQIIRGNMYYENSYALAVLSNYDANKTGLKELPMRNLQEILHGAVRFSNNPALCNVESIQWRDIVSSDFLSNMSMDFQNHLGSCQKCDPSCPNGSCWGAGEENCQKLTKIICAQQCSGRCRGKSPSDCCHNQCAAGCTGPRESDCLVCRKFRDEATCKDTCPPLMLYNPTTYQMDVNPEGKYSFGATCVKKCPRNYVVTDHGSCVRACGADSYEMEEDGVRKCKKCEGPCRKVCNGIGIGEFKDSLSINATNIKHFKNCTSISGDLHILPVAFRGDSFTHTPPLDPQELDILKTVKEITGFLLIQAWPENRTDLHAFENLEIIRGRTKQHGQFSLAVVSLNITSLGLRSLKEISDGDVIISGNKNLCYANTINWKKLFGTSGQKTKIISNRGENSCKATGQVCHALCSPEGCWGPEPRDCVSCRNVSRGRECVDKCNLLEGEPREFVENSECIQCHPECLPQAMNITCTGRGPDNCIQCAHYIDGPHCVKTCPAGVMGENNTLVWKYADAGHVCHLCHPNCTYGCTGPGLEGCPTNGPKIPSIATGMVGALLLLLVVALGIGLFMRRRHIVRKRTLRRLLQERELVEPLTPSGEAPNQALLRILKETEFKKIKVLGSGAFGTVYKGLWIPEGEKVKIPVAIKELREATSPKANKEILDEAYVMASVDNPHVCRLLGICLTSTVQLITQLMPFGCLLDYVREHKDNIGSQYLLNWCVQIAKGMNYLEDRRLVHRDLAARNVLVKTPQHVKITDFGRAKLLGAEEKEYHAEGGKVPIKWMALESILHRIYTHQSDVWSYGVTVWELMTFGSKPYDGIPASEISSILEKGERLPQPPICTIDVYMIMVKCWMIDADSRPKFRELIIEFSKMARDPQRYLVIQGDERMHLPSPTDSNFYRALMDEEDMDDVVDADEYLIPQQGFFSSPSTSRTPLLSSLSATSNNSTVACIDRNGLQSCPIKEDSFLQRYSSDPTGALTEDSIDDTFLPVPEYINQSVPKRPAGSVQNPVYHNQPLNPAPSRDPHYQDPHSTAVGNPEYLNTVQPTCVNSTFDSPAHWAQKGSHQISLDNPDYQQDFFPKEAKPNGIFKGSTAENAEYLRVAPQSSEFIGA
Sequence of PDGFRB (P09619 33-1106): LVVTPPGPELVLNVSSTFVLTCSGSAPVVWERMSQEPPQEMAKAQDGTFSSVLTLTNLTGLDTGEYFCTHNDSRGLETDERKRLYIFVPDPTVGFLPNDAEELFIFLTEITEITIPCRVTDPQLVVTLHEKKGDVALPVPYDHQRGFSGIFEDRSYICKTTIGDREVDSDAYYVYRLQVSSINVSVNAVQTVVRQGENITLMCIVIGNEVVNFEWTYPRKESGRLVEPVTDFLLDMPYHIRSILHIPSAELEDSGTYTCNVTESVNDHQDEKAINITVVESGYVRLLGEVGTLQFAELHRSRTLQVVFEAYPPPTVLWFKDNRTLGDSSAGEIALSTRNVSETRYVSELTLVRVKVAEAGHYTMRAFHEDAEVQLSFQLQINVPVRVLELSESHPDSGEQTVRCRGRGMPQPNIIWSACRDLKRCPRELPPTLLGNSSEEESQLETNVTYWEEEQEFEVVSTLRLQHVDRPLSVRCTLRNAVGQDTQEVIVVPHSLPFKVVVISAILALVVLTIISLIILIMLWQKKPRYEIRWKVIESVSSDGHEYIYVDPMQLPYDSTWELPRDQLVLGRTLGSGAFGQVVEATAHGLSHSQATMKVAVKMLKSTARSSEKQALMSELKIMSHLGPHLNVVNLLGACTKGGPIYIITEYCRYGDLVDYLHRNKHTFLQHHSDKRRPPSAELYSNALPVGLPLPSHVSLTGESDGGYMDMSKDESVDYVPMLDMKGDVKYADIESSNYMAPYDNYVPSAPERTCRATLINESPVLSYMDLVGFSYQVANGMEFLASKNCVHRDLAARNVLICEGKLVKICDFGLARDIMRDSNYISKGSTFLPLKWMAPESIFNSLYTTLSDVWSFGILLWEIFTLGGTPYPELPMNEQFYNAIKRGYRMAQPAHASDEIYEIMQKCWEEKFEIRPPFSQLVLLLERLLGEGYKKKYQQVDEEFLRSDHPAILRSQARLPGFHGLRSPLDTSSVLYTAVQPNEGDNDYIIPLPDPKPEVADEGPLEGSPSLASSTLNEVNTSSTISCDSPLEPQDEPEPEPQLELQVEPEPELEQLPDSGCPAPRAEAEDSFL

Structure (SMILES)	% Inhibition at 10 μM (EGFR L861Q) [%]	EC50 (VSMCs) [µM]	% Inhibition at 10 μM (EGFR L858R) [%]	% Inhibition at 10 μM (ABL1) [%]	B-RAF/C-RAF heterodimer formation [1]	endothelial tube formation and % pericyte-covered tube length [2]	% Inhibition at 10 μM (EGFR) [%]	% Inhibition at 10 μM (KDR (VEGFR2)) [%]	EC50 (R40P) [µM]	phosphorylation on CRAF S338 (CRAF S338)	further results
Nc1cc(Oc2ccc(-c3nnc(Nc4cccc(C(F)(F)F)c4)[nH]3)cc2)ncn1 [Compound 3]	−1	15	−3	4	had no effect	did not affect endothelial tube formation	−2	31			Kd (PDGFRA; PDGFRα): 0.032 µM; Kd (FLT3): 0.0014 µM; Kd (PDGFRB; PDGFRβ): 0.04 µM; Kd (KIT): 0.0037 µM
CSc1nc(N)cc(Oc2ccc(-c3nnc(Nc4cccc(C(F)(F)F)c4)[nH]3)cc2)n1 [Compound 6]	−4	0.59	−10	3	completely inhibited	dramatic reduction	−3	16	0.66	does not promote this increase	% Control (PDGFRA; 10 uM, PDGFRA): 0.25%; % Control (FLT3; 10 uM): 2.8%; EC50 (HT29): 0.62 µM; EC50 (CHL-1): 0.1 µM; EC50 (SK-MEL-2): 0.14 µM; EC50 (SK-MEL-28): 0.4 µM; EC50 (MCF7): 0.68 µM; % Control (PDGFRB; 10 uM, PDGFRB): 0.5%; % Control (KIT; 10 uM): 0%; EC50 (HCT116): 0.4 µM
CNC(=O)c1cc(Oc2ccc(NC(=O)Nc3ccc(Cl)c(C(F)(F)F)c3)cc2)ccn1 [sorafenib, reference compound]									9.43	induces an increase	EC50 (HT29; Homo sapiens, HT-29): > 20 µM; EC50 (CHL-1; Homo sapiens): 6.1 µM; EC50 (SK-MEL-2; Homo sapiens): 14.3 µM; EC50 (SK-MEL-28; Homo sapiens): 17.6 µM; EC50 (MCF7; Homo sapiens): > 20 µM; EC50 (HCT116; Homo sapiens, HCT-116): 8.21 µM
